In general, IC50 refers to the midpoint of a concentration-inhibition curve. The low end stands for higher potency, the high end for lower potency.

Molecules are shown by their SMILES. Numbered stars: 1 amine (or outer) side, 2 acyl side, 3 side chain; on linkers, the order of the positions; unused ones are H or OH. Square brackets hold non-standard residues; d marks the D form. Peptide text beside a SMILES is read from it. ξ: configuration not given here. X3 = C[C@@H](OP(=O)(O)OCC[C@@H](O)CO)[C@H](N[*:1])C(=O)[*:2]; X20 = O=C([C@H](Cc1cncn1CC[C@@H](O)CO)N[*:1])[*:2]; X13 = COP(=O)(O)O[C@H](C)[C@H](N[*:1])C(=O)[*:2]; pT = C[C@@H](OP(=O)(O)O)[C@H](N)C(=O)O; ξP = O=C(O)C1CCCN1 A value given as a limit tells only on which side of the number the result lay.

Chain of Serine/threonine-protein kinase PLK1 (P53350 whole entry): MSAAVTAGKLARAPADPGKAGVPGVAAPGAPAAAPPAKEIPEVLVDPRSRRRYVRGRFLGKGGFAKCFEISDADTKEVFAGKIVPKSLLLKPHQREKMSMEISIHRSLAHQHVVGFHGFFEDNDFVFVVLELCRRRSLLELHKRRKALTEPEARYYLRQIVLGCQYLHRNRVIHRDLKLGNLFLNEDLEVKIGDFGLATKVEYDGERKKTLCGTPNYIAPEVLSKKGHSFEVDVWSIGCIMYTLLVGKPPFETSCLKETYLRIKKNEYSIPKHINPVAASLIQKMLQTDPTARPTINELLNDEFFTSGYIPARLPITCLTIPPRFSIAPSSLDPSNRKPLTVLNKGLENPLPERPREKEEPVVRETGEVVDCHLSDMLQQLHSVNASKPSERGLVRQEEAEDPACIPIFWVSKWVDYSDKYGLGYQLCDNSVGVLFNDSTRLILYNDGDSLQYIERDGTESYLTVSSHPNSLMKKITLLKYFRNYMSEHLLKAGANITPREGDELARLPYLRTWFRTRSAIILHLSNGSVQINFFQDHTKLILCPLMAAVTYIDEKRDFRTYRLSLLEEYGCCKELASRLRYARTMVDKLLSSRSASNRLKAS

This assay deals with Serine/threonine-protein kinase PLK1 (Homo sapiens, UniProt P53350). Kind of assay: Inhibition Assay. The following applies: pH 8; 25 °C. An excerpt:
The evaluation of Plk1 PBD binding affinities of the synthetic compounds using an ELISA-based 96-well assay.
`CC(=O)N1CCCC1C(=O)N[C@@H](CC(C)C)C(=O)N[C@@H](Cc1cncn1CC[C@@H](O)CO)C(=O)N[C@@H](CO)C(=O)N[C@H](C(N)=O)[C@@H](C)OP(=O)(O)O` (stereo partly drawn) [Phosphodiester analog, 4b] (Ac-[ξP]L[X20]S[pT]-NH2) gave an IC50 of more than 200 µM.
The same measure for `COP(=O)(O)O[C@H](C)[C@H](NC(=O)[C@H](CO)NC(=O)[C@H](Cc1cnc[nH]1)NC(=O)[C@H](CC(C)C)NC(=O)C1CCCN1C(C)=O)C(N)=O` (stereo partly drawn) [Phosphodiester analog, 3a] (Ac-[ξP]LHS[X13]-NH2): more than 200 µM.
`CC(=O)N1CCCC1C(=O)N[C@@H](CC(C)C)C(=O)N[C@@H](Cc1cnc[nH]1)C(=O)N[C@@H](CO)C(=O)N[C@H](C(N)=O)[C@@H](C)OP(=O)(O)OCC[C@@H](O)CO` (stereo partly drawn) [Phosphodiester analog, 3b] (Ac-[ξP]LHS[X3]-NH2) returned an IC50 of more than 200 µM.

The record behind these values is BindingDB's records for doi:10.1038/nchembio.614 (National Cancer Institute-Frederick, 2011).
